Measurements taken from patent publication US9974761B2, “Medications for deposition on biological surfaces” (The Procter & Gamble Company, priority 2014, dated 2018).
Blank lines part the entries; values can stand above or below the compound they belong to.

Columns and labels:
[1] = concentration where the cooling effect could be clearly recognized; Emberger and Hopp 1987; cited from earlier work
[2] = target: T1, human TRPA1 (Homo sapiens, UniProt O75762, K186N/R3C/R58T); test: TRPA1 Protocol-FLIPR Assay (intracellular Ca2+); type: cell-based
T1 construct: expressed in transfected cells
T1 sequence (O75762 whole entry R3C/R58T/K186N): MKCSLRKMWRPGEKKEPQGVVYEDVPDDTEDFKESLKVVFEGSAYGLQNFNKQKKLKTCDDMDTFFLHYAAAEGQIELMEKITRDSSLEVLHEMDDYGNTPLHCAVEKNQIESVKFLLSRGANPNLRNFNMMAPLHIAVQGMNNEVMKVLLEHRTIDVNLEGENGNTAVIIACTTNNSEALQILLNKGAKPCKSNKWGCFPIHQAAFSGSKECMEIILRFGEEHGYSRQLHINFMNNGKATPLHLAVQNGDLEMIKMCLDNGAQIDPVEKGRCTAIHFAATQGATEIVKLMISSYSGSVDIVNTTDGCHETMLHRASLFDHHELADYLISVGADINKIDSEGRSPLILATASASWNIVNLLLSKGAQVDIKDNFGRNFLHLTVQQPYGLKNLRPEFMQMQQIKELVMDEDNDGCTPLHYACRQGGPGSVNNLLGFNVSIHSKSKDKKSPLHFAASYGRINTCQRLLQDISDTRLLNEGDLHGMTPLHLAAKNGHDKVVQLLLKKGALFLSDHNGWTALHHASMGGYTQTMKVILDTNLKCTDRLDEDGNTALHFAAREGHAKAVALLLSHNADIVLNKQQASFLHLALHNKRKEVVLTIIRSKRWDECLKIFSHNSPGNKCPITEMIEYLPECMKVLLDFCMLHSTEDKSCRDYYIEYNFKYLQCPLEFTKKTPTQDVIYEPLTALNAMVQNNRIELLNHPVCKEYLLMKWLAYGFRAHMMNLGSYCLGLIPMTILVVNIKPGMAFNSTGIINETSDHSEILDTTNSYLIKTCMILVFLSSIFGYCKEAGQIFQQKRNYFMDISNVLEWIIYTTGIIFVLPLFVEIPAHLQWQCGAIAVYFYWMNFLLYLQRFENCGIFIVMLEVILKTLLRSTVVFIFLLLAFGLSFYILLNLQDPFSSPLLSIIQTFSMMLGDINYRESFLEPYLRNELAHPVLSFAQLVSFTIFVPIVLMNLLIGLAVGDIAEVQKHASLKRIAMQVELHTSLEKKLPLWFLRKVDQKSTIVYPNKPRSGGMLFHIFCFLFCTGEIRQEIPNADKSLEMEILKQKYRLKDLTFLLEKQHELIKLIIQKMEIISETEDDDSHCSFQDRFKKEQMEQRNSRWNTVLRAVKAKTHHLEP
Procedure: To determine whether TRPA1 is activated, the intracellular calcium ion (Ca^2+) level from transfected cells with the TRPA1 receptor sequence (SEQ ID NO: 2) was measured. HEK-293 cells stably transfected with human TRPA1 were grown in 15 ml growth medium (high glucose DMEM (Dulbecco's Modification of Eagle's Medium) supplemented with 10% FBS (fetal bovine serum), 100 μg/ml penicillin/streptomycin, 100 μg/ml G418) in a 75cm^2 flask for 3 days at 37° C. in a mammalian cell culture incubator set at 5% CO2. Cells were detached with addition of 10 ml of PBS (phosphate buffered saline) by hand shaking gently and transferred to a 50 ml tube and centrifuged at 850 rpm for 3 minutes to remove PBS. After centrifugation, a pellet of cells was formed in the bottom of the tube separating them from the supernatant solution. The supernatant was discarded and the cell pellet suspended in 1 ml of fresh growth medium to which 5 μl (12.5 μg) of Fluo-4 AM (Molecular Probes, Inc.) calcium indicator was added and incubated for 30 minutes with gentle shaking. At the end of the 30 minutes, 45 ml of assay buffer (1× HBSS (Hank's Balanced Salt Solution), 20 mM HEPES (4-(2-Hydroxyethyl)-1-piperazineethanesulfonic acid)) was added to wash the cells and the resulting combination was then centrifuged at 850 rpm for 3 minutes to remove excess buffer and Fluo-4 AM calcium indicator.
The pelleted cells were re-suspended in 10 ml assay buffer and 90 μll aliquots (˜50,000 cells) per well delivered to a 96-well assay was placed into a fluorometric imaging plate reader (FLIPR TETRA from Molecular Devices) and basal fluorescence recorded (excitation wave length 488 nm and emission wave length 510 nm). Then 20 μl of the test compound being tested was added and fluorescence recorded (TABLES 2 and 3).
To determine if a compound was an agonist the direct effect of a test compound was determined. If any increase in fluorescence over background was noted, then the compound was considered an agonist. The agonist activity was expressed relative to that observed with a benchmark agonist such as 50 μm allyl isothiocyanate for TRPAL

[3] = target: T2, human TRPV1 (Homo sapiens, UniProt Q8NER1, M315I/T336M); test: TRPV1 Protocol-FLIPR Assay (intracellular Ca2+); type: cell-based
T2 construct: expressed in transfected cells
T2 sequence (Q8NER1 whole entry M315I/T336M): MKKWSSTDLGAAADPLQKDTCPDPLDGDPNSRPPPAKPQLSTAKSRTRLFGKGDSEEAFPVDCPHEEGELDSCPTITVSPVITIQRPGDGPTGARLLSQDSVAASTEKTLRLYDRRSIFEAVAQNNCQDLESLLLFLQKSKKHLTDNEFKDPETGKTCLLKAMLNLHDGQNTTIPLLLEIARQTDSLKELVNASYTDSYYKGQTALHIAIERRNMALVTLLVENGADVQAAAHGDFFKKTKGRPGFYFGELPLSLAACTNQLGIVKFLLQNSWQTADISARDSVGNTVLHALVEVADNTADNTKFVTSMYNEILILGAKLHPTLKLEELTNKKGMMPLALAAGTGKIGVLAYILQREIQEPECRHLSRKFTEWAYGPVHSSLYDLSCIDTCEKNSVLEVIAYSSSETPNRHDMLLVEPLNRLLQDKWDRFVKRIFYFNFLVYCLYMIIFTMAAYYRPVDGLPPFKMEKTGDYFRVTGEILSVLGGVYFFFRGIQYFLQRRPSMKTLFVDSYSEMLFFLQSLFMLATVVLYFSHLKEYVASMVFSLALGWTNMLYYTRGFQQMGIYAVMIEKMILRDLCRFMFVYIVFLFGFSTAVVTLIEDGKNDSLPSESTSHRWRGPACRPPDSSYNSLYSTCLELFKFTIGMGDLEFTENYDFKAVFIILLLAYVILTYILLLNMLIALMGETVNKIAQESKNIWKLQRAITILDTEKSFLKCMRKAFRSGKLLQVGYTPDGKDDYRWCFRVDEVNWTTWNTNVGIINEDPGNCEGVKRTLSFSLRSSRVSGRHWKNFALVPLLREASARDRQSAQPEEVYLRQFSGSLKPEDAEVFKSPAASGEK
Procedure: To determine whether TRPV1 was activated, the intracellular calcium ion (Ca^+2) levels from cells transfected with the TRPV1 receptor sequence (SEQ ID NO: 1) were measured. […] Cells were detached with addition of 10 ml of PBS (phosphate buffered saline) by gentle hand shaking. Cells were transferred to a 50 ml tube and centrifuged at 850 rpm for 3 minutes to remove PBS. After centrifugation, a pellet of cells formed in the bottom of the tube separating them from the supernatant solution. The supernatant was discarded and the cell pellet suspended in 1 ml of fresh growth medium to which 5 μl (12.5 μg) of Fluo-4 AM (Molecular Probes, Inc., Eugene, Oreg.) calcium indicator was added and incubated for 30 minutes with gentle shaking. […] The pelleted cells were re-suspended in 10 ml assay buffer and 90 μl aliquots (˜50,000 cells) per well delivered to a 96-well assay plate was placed into a fluorometric imaging plate reader (FLIPR TETRA from Molecular Devices) and basal fluorescence recorded (excitation wave length 488 nm and emission wave length 510 nm). Then 20 μl of a test compound-being tested as a TRPV1 receptor agonist was added and fluorescence recorded. The observed value with compound pretreated cells was compared with buffer control; the difference between the two indicating a measure of effect of the test compound on the agonist (TABLES 2 and 3). If any increase in fluorescence over background was noted, then the compound was considered an agonist.

[4] = Sensation reported by panelists; type: in vivo; details: perceived sensation, in words
[5] = target: T3, human TRPM8 (UniProt Q8R4D5); test: TRPM8 Protocol-FLIPR Assay (intracellular Ca2+); type: cell-based
T3 construct: Receptor Activity TRPM8; Receptor Activity TRPM8; other: test compound at 0.001%; relative to WS5 control (30 microMolar); HEK 293 cells; other: test compound at 0.004%; other: test compound at 5.2E−5%; relative to WS5 control
Procedure: (§1) To determine whether TRPM8 is activated, the intracellular calcium ion (Ca^2+) level was measured from transfected cells with the TRPM8 receptor sequence (SEQ ID NO: 3). HEK-293 (human embryonic kidney) cells stably transfected with human TRPM8 were grown in 15 ml growth medium (high glucose DMEM (Dulbecco's Modification of Eagle's Medium) supplemented with 10% FBS (fetal bovine serum), 100 ug/ml penicillin/streptomycin, 5 μg/ml blasticindin, and 100 μg/ml zeocin) in a 75 cm^2 flask for 3 days at 37° C. in a mammalian cell culture incubator set at 5% CO2 Cells were detached with addition of 2 ml of trypsin-EDTA buffer (GIBCO® 25200, Invitrogen, Grand Island, N.Y.) for about 2-3 min. Trypsin was inactivated by addition of 8 ml growth medium. Cells were transferred to a 50 ml tube and centrifuged at 850 rpm for 3 minutes to remove medium. After centrifugation, a pellet of cells was formed in the bottom of the tube separating them from the supernatant solution. The supernatant was discarded and the cell pellet was suspended in 1 ml of fresh growth medium to which 5 μl (12.5 μg) of Fluo-4 AM (Molecular Probes, Inc., Eugene, Oreg.) calcium indicator was added and incubated for 30 min with gentle shaking. Fluo-4 AM is a fluorescent dye used for quantifying cellular Ca^2+ concentrations in the 100 nM to 1 microM range. At the end of 30 minutes, 45 ml of assay buffer (1× HBSS (Hank's Balanced Salt Solution), 20 mM HEPES (4-(2-Hydroxyethyl)-1-piperazineethanesulfonic acid)) was added to wash cells and the resulting mixture was then centrifuged at 850 rpm for 3 minutes to remove excess buffer and Fluo-4 AM calcium indicator.
(§2) The pelleted cells were re-suspended in 10 ml assay buffer and 90 μl aliquots (˜50,000 cells) per well delivered to a 96-well assay plate containing 10 μl of test compounds (1 mM in assay buffer, […]) or buffer control and incubated at room temperature for 30 minutes. After 30 minutes, a plate was placed into a fluorometric imaging plate reader (FLIPR384 from Molecular Devices, Sunnyvale, Calif.) and basal fluorescence recorded (excitation wave length 488 nm and emission wave length 510 nm). Then 20 μl of […] of TRPM8 agonist WS5 coolant in the assay buffer was added and fluorescence recorded. For determining the direct effect of test compounds on TRPM8, fluorescence was measured immediately after addition of each compound (TABLES 2 and 3). Additional discussion of the FLIPR method can be found in Smart et al., Characterization using FLIPR of human vanilloid VR1 receptor pharmacology, European Journal of Pharmacology 417, 51-58 (2001) and Liu et al., Development and validation of a platelet calcium flux assay using a fluorescent imaging plate reader, Analytical Biochemistry 357, 216-224 (2006).
(§3) TRPM8 activation was determined by measuring intracellular calcium ion (Ca^2+) level from transfected cells with the TRPM8 receptor gene, as described in EXAMPLE 1, the results of which are shown in TABLES 4 and 5.

[6] = tested on: human TRPM8; test: TRPM8 Protocol-FLIPR Assay (intracellular Ca2+); type: cell-based; details: dose 30 uM
Procedure: as §1, §2, §3

[7] = test compound at 0.02%, relative to Allyl Isothiocyanate control (50 microMolar), HEK 293 cells
[8] = test compound at 0.02%, relative to Capsaicin control (350 nanoMolar), HEK 293 cells
[9] = test compound at 5.2E−5%, relative to Allyl Isothiocyanate control (50 microMolar), HEK 293 cells
[10] = test compound at 5.2E−5%, relative to Capsaicin control (350 nanoMolar), HEK 293 cells

SMILES: CC(C)[C@@H]1CC[C@@H](C)C[C@@H]1O [Compound 1-neomenthol, 1-neomenthol]
cooling threshold [1]: about 3,000 ppb

SMILES: CC(C)[C@@H]1CC[C@@H](C)C[C@H]1O [L-menthol]
cooling threshold [1]: about 800 ppb

SMILES: CC(C)[C@@H]1CC[C@@H](C)C[C@@H]1O [d-neomenthol]
cooling threshold [1]: about 25,000 ppb

SMILES: C=CCN=C=S [Allyl Isothiocyanate, reference compound]
Receptor Activity TRPA1 ([2]; control agonist at 50 microMolar (reference = 100%)): 100%

SMILES: CC(C)[C@@H]1CC[C@@H](C)C[C@H]1C(=O)NCC(NC(=O)[C@@H](C)N)c1ccccc1 (stereo partly drawn) [Compound 28, Cyclohexane-carboxamide, N-[2-[[(2R)-2-amino-1-oxopropyl]amino]-2-phenylethyl]-5-methyl-2-(1-methylethyl)-, (1R,2S,5R)-*]
mass efficiency relative to N-(4-cyanomethylphenyl)-p-menthanecarboxamide ([5]; at a single concentration, TRPM8 activity vs WS5): 100 ×
Receptor Activity TRPM8 ([5]; test compound at 5.2E−6%, relative to WS5 control (30 microMolar), HEK 293 cells): 130.42%
Receptor Activity TRPM8 ([5]; test compound at 5.2E−6%, relative to WS5 control (30 microMolar), HEK 293 cells, listed as compound 28): 130%
Receptor Activity TRPA1 [2, 9]: 242.50%
Receptor Activity TRPV1 [3, 10]: 104.50%
sensation (cooling, warming, burning) [4]: cooling sensations

SMILES: CCOC(=O)CNC(=O)C1CC(C)CCC1C(C)C (stereo not shown) [WS5, N-ethoxycarbonylmethyl-ρ-menthan-3-carboxamide, reference compound]
Receptor Activity TRPM8 ([5]; control agonist at 30 microMolar (reference = 100%)): 100%
TRPM8 Time Course Activity 50 sec % of WS5 ([5]; dose 30 uM, 50 sec): 100.0%
TRPM8 Time Course Activity 50 sec ([5]; dose 30 uM, fluorescence at 50 sec): 10059.7
TRPM8 Time Course Activity 50 sec % of WS5 ([6]; 50 sec): 100.0%
TRPM8 Time Course Activity 3 min % of WS5 ([6]; 3 min): 100.0%
TRPM8 Time Course Activity 5 min % of WS5 ([6]; 5 min): 100.0%
TRPM8 Time Course Activity 10 min % of WS5 ([6]; 10 min): 100.0%
TRPM8 Time Course Activity 50 sec ([6]; fluorescence at 50 sec): 10059.7
TRPM8 Time Course Activity 3 min ([6]; fluorescence at 3 min): 9449.3
TRPM8 Time Course Activity 5 min ([6]; fluorescence at 5 min): 9468.0
TRPM8 Time Course Activity 10 min ([6]; fluorescence at 10 min): 9576.0

Second part, led by results:

Receptor Activity TRPA1 [2, 7]: 198.79%
Receptor Activity TRPV1 [3, 8]: 92.07%
SMILES: CSc1ccc(NC(=O)[C@@H]2C[C@H](C)CC[C@H]2C(C)C)c(NCCN)c1 [Compound 773, Cyclohexane-carboxamide N-[2-[(2-aminoethyl)amino]-4-(methylthio)phenyl]-5-methyl-2-(1-methylethyl)-(1R,2S,5R)-*]
sensation (cooling, warming, burning) [4]: warming

Receptor Activity TRPM8 ([5]; test compound at 0.001%, relative to WS5 control (30 microMolar), HEK 293 cells): 108.80%
Receptor Activity TRPM8 ([5]; test compound at 0.001%, relative to WS5 control (30 microMolar), HEK 293 cells, listed as N-(4-cyanomethylphenyl)-p-menthanecarboxamide): 109%
Receptor Activity TRPA1 ([2]; test compound at 0.001%, relative to Allyl Isothiocyanate control (50 microMolar), HEK 293 cells): 68.02%
Receptor Activity TRPV1 ([3]; test compound at 0.001%, relative to Capsaicin control (350 nanoMolar), HEK 293 cells): 0.01%
SMILES: CC(C)[C@@H]1CC[C@@H](C)C[C@H]1C(=O)Nc1ccc(CC#N)cc1 [Compound 180, Cyclohexane-carboxamide, N-[4-(cyanomethyl)phenyl]-5-methyl-2-(1-methylethyl)-, (1R,2S,5R)-, reference compound]

Receptor Activity TRPV1 ([3]; control agonist at 350 nanoMolar (reference = 100%)): 100%
SMILES: COc1cc(CNC(=O)CCCC/C=C/C(C)C)ccc1O [Capsaicin, reference compound]

Receptor Activity TRPA1 [2, 7]: 173.88%
Receptor Activity TRPV1 [3, 8]: 60.5%
SMILES: CC(C)[C@@H]1CC[C@@H](C)C[C@H]1C(=O)Nc1ccc2ccccc2c1OCCN [Compound 777, Cyclohexane-carboxamide, N-[1-(2-aminoethoxy)-2-naphthalenyl]-5-methyl-2-(1-methylethyl)-, (1R,2S,5R)-*]
sensation (cooling, warming, burning) [4]: burning
sensation (cooling, warming, burning) ([4]; listed as test compound 777): burning sensation

Receptor Activity TRPM8 ([5]; test compound at 5.2E−5%, relative to WS5 control (30 microMolar), HEK 293 cells): 109.70%
Receptor Activity TRPA1 [2, 9]: 38.18%
Receptor Activity TRPV1 [3, 10]: 16.24%
SMILES: CC(C)[C@@H]1CC[C@@H](C)C[C@H]1C(=O)NCC(OCCN)c1ccccc1 (stereo partly drawn) [Compound 30, Cyclohexane-carboxamide, N-[2-(2-aminoethoxy)-2-phenylethyl]-5-methyl-2-(1-methylethyl)-, (1R,2S,5R)-*]
sensation (cooling, warming, burning) [4]: lack of sensation, cooling or warming
